# Measurements from patent publication US20050158817A1, “Method for the production of a fermentation product from an organism” (Technische Universiteit Delft, priority 2003, published 2005).
# Test system: Pseudomonas putida KT2442
# Procedure: In accordance with the method of Weusthuis et al. (2001) Biopolymers 3a: Polyesters I: Biological Systems and Biotechnological Production, Wiley-VCH, pp. 291-316, Pseudomonas putida KT2442 was cultured in 8 litres of medium in a 10-litre fed-batch fermentor at 30° C. […] The carbon source in the culture consisted of free fatty acids obtained from coconut oil (Vereenigde Oliefrabrieken, Rotterdam, the Netherlands) in a concentration of 0.4 vol./vol. % per litre of medium, yielding 131 g dry bacteria mass per litre of medium. This carbon source causes the organism to accumulate polyhydroxy alkanoate inclusion bodies. After fermentation, the batter was stored for a maximum of 3 months at 4-8° C.
# 250 ml of fermentation batter of Pseudomonas putida KT2442 was stirred for 1 hour using a magnetic agitator. […] After adjusting the pH, the mixture was stirred for 30 minutes using a magnetic agitator, whereafter it was homogenised with the aid of a homogeniser (Constant Cell Disruption Systems, Low March, Leerdam, the Netherlands) having a cell volume of 10 ml. The homogeniser was operated at a temperature of 10° C. and the mixture to be homogenised was cooled between homogenisation passages. The number of homogenisation passages was varied from 0 to 5 and the effect of the homogenisation pressure in 1 passage was assessed at 1.0, 1.3, 1.6 or 2.0 kbar. […]
compound,measurement,setting,value
N [ammonium hydroxide],release of inclusion bodies into the supernatant without homogenisation,"pH 11, zero passages (N), cells stored 9 weeks at 4-8° C.",releases a fraction of the inclusion bodies into the supernatant even at zero passages
same,fraction of free inclusion bodies released from the cells versus homogenisation pressure,"pre-treatment at pH 11, 1 passage at 1.0, 1.3, 1.6 or 2.0 kbar, compared with untreated cells, FIG. 1",more inclusion bodies are released from the cells
